Columns and labels:
[1] = tested on: tumor cell lines that express a high level of creatine kinase; conditions: literature; cited from earlier work
[2] = tested on: slices of mouse hippocampus; experiment: Incubation of mouse hippocampus slices with (Boc)2-creatine; assay type: cell-based; conditions: 2 mM, 3 hours at 36° C.
Description: Of course, high concentrations of (Boc)2-creatine will have a cytotoxic effect. […] Since tumor development is due to an uncontrolled cellular progression, a molecule which can control the main source of cell energy gives a valid means of controlling cell proliferation.

creatine kinase enzyme [3] = experiment: Creatine kinase activity by the coupled enzymatic method (pyruvate kinase/lactate dehydrogenase, NADH at 340 nm); assay type: biochemical; conditions: 2 mM creatine
Procedure: The activity of the creatine kinase enzyme was measured by the enzymatic coupling method (Bergmeyer 1974). In this method, the ATP hydrolysis is coupled with the NADH oxidation, which is monitored, by means of a spectrophotometer, by the decrease in absorbance at 340 nm (ε340=6.22 mM^−1 cm^−1).
The dosage of the creatine kinase was carried out with the spectrophotometer at 340 nm, following the oxidation of the pyridine coenzyme NADH, which is expressed as a decrease in the absorbance. To be able to carry out the dosage, the reaction of the creatine kinase was combined with two other enzymatic reactions catalyzed respectively by the pyruvate kinase and by the lactate dehydrogenase (Bergmeyer 1974). This method, defined as the coupled method, is necessary because both the substrata and the products of the creatine kinase are not directly visible to the spectrophotometer. In particular, the dosage solution contained the following compounds: 100 mM Tris HCl, pH 7.5, 2 mM MgCl2, 75 mM KCl, 2 mM ATP, 0.5 mM phosphoenolpyruvate, 0.16 mM NADH, 10 IU of pyruvate kinase and of lactate dehydrogenase, in a final volume of 1 ml. The reaction begins by the addition of 2 mM of creatine. The dosage is carried out continuously, i.e. the enzyme activity is followed in real time during the development of the reaction. The dosage trend is monitored by a register connected to the spectrophotometer. The reactions take place in the cuvette, as illustrated in FIG. 1.
To verify the inhibiting effect of (Boc)2-creatine, concentrations between 0.25 and 2 mM were added to the dosage solution, before the addition of the creatine.
To identify the type of inhibition, the maximum kinetic speed (Vmax) and the Michaelis Menten constant (Km) were measured. To be able to carry out the experiment, for each concentration of (Boc)2-creatine, the dosage was carried out in the presence of different substratum concentrations (creatine). The data were analyzed with the Lineweaver-Burk double-reciprocal plot.

creatine kinase enzyme [4] = conditions: literature; cited from earlier work

## N=C1NCCN1CC(=O)O [cyclocreatine, 1-carboxymethyl-2-iminoimidazolidine]
[1]
  inhibition of tumor cell lines: suitable for inhibiting tumor cell lines that express a high level of creatine kinase

## CN(CC(=O)O)C(=NC(=O)OC(C)(C)C)NC(=O)OC(C)(C)C [(Boc)2-creatine]
[2]
  cytotoxic effect on hippocampus slices (vital signs): show no vital signs
Creatine kinase enzyme [3]; 0.25 mM (Boc)2-creatine
  inhibition of the creatine kinase: 21%
Creatine kinase enzyme [3]; 0.5 mM (Boc)2-creatine
  inhibition of the creatine kinase: 39%
Creatine kinase enzyme [3]; 0.75 mM (Boc)2-creatine
  inhibition of the creatine kinase: 75%
Creatine kinase enzyme [3]; 1 mM (Boc)2-creatine
  maximum inhibition of the creatine kinase: 95%

## CCCCCC(CCCC)=C([Te]c1ccccc1)C(=O)c1ccccc1 [3-butyl-1-phenyl-2-(phenyltelluro)oct-en-1-one]
Creatine kinase enzyme [4]
  type of inhibition of creatine kinase: competitive inhibitor

## NC(=O)CI [Iodoacetamide]
Creatine kinase enzyme [4]
  type of inhibition of creatine kinase: complete and irreversible inhibition

Reference: patent publication US9700539B2, “Therapeutic application of (Boc)2-creatine” (UNIVERSITA' DEGLI STUDI DI GENOVA, priority 2013, dated 2017)
